According to ChEMBL document CHEMBL1148308, “Peptide-based inhibitors of the hepatitis C virus NS3 protease: structure-activity relationship at the C-terminal position” (J Med Chem, 2004):
Where a SMILES comes first, the peptide text is derived from it. [ ]: non-standard residue; d: D form. Hyp(2-Ph-quinolin-4-yl) = O=C(O)[C@@H]1C[C@@H](Oc2cc(-c3ccccc3)nc3ccccc23)CN1; Ac3c(1R,2S-2-vinyl) = C=C[C@@H]1C[C@]1(N)C(=O)O; Chg = N[C@H](C(=O)O)C1CCCCC1

assay: Inhibitory activity against the hepatitis C virus NS3 protease was determined; parameters: species or system Hepacivirus hominis

Point of comparison: `CCC[C@@H]1C[C@]1(NC(=O)C1CC(OCc2cccc3ccccc23)CN1C(=O)[C@@H](NC(=O)[C@@H](NC(C)=O)C1CCCCC1)C(C)C)C(=O)O` (single isomer, unassigned), IC50 5.5 µM. Against it:
- CC(=O)N[C@H](C(=O)N[C@H](C(=O)N1C[C@H](OCc2cccc3ccccc23)C[C@H]1C(=O)N[C@]1(C(=O)O)C[C@H]1CCc1ccccc1)C(C)C)C1CCCCC1 — 4-fold higher, 22 µM
- CC(=O)N[C@H](C(=O)N[C@H](C(=O)N1C[C@H](OCc2cccc3ccccc23)C[C@H]1C(=O)N[C@@]1(C(=O)O)C[C@@H]1CCc1ccccc1)C(C)C)C1CCCCC1 — 16-fold higher, 90 µM
- CC(=O)N[C@H](C(=O)N[C@H](C(=O)N1C[C@H](OCc2cccc3ccccc23)C[C@H]1C(=O)N[C@@]1(C(=O)O)C[C@@H]1Cc1ccccc1)C(C)C)C1CCCCC1 — 15-fold higher, 81 µM
- CC(=O)N[C@H](C(=O)N[C@H](C(=O)N1C[C@H](OCc2cccc3ccccc23)C[C@H]1C(=O)N[C@]1(C(=O)O)C[C@H]1C(C)C)C(C)C)C1CCCCC1 — the same, 5.5 µM
- CC(=O)N[C@H](C(=O)N[C@H](C(=O)N1C[C@H](OCc2cccc3ccccc23)C[C@H]1C(=O)N[C@@]1(C(=O)O)C[C@@H]1C(C)C)C(C)C)C1CCCCC1 — 120-fold higher, 640 µM
- CC(=O)N[C@H](C(=O)N[C@H](C(=O)N1C[C@H](OCc2cccc3ccccc23)C[C@H]1C(=O)N[C@]1(C(=O)O)C[C@H]1Cc1ccccc1)C(C)C)C1CCCCC1 — 2.5-fold higher, 14 µM
- C=C[C@@H]1C[C@]1(NC(=O)[C@@H]1C[C@@H](Oc2cc(-c3ccccc3)nc3ccccc23)CN1C(=O)[C@@H](NC(=O)[C@@H](NC(C)=O)C1CCCCC1)C(C)C)C(=O)O (Ac-[Chg]V[Hyp(2-Ph-quinolin-4-yl)][Ac3c(1R,2S-2-vinyl)]-OH) — 290-fold lower, 0.019 µM
- CC(=O)N[C@H](C(=O)N[C@H](C(=O)N1CC(OCc2ccccc2)CC1C(=O)N[C@@H](CS)C(=O)O)C(C)C)C1CCCCC1 (single isomer, unassigned) — 25-fold higher, 140 µM
- CC(=O)N[C@H](C(=O)N[C@H](C(=O)N1CC(OCc2ccccc2)CC1C(=O)NC1(C(=O)O)CC1)C(C)C)C1CCCCC1 (single isomer, unassigned) — 60-fold higher, 330 µM
- CC[C@H]1C[C@@]1(NC(=O)C1CC(OCc2cccc3ccccc23)CN1C(=O)[C@@H](NC(=O)[C@@H](NC(C)=O)C1CCCCC1)C(C)C)C(=O)O (single isomer, unassigned) — 5.8-fold higher, 32 µM
- COc1ccc2c(OC3CC(C(=O)NC4(C(=O)O)CC4)N(C(=O)[C@@H](NC(=O)[C@@H](NC(C)=O)C4CCCCC4)C(C)C)C3)ccnc2c1 (single isomer, unassigned) — 6.5-fold lower, 0.85 µM
- CCC[C@H](NC(=O)C1CC(OCc2cccc3ccccc23)CN1C(=O)[C@@H](NC(=O)[C@@H](NC(C)=O)C1CCCCC1)C(C)C)C(=O)O (single isomer, unassigned) — 4.2-fold higher, 23 µM
- CCC[C@H]1C[C@@]1(NC(=O)C1CC(OCc2cccc3ccccc23)CN1C(=O)[C@@H](NC(=O)[C@@H](NC(C)=O)C1CCCCC1)C(C)C)C(=O)O (single isomer, unassigned) — 7.5-fold higher, 41 µM
- C=C[C@@H]1C[C@]1(NC(=O)C1CC(OCc2ccccc2)CN1C(=O)[C@@H](NC(=O)[C@@H](NC(C)=O)C1CCCCC1)C(C)C)C(=O)O (single isomer, unassigned) — 1.8-fold higher, 9.7 µM
- CC(=O)N[C@H](C(=O)N[C@H](C(=O)N1CC(OCc2cccc3ccccc23)CC1C(=O)N[C@]1(C(=O)O)C[C@H]1C)C(C)C)C1CCCCC1 (single isomer, unassigned) — 4-fold higher, 22 µM
- CC[C@@H]1C[C@]1(NC(=O)C1CC(OCc2cccc3ccccc23)CN1C(=O)[C@@H](NC(=O)[C@@H](NC(C)=O)C1CCCCC1)C(C)C)C(=O)O (single isomer, unassigned) — within 1.5-fold, 4.8 µM
- CC(=O)N[C@H](C(=O)N[C@H](C(=O)N1CC(OCc2cccc3ccccc23)CC1C(=O)NC1(C(=O)O)CC1)C(C)C)C1CCCCC1 (single isomer, unassigned) — 2.5-fold higher, 14 µM
- C=C[C@@H]1C[C@]1(NC(=O)C1CC(OCc2cccc3ccccc23)CN1C(=O)[C@@H](NC(=O)[C@@H](NC(C)=O)C1CCCCC1)C(C)C)C(=O)O (single isomer, unassigned) — 8.7-fold lower, 0.63 µM
- CC(=O)N[C@H](C(=O)N[C@H](C(=O)N1CC(Oc2cc(-c3ccccc3)nc3ccccc23)CC1C(=O)NC1(C(=O)O)CC1)C(C)C)C1CCCCC1 (single isomer, unassigned) — 10-fold lower, 0.55 µM
- CCC1(CC)C[C@]1(NC(=O)C1CC(OCc2cccc3ccccc23)CN1C(=O)[C@@H](NC(=O)[C@@H](NC(C)=O)C1CCCCC1)C(C)C)C(=O)O (single isomer, unassigned) — 56-fold higher, 310 µM
- CC(=O)N[C@H](C(=O)N[C@H](C(=O)N1CC(OCc2cccc3ccccc23)CC1C(=O)N[C@@]1(C(=O)O)C[C@@H]1C)C(C)C)C1CCCCC1 (single isomer, unassigned) — 33-fold higher, 180 µM
- CCC[C@H](NC(=O)C1CC(OCc2ccccc2)CN1C(=O)[C@@H](NC(=O)[C@@H](NC(C)=O)C1CCCCC1)C(C)C)C(=O)O (single isomer, unassigned) — 96-fold higher, 530 µM
- C=C[C@@H]1C[C@]1(NC(=O)C1CC(Oc2ccnc3cc(OC)ccc23)CN1C(=O)[C@@H](NC(=O)[C@@H](NC(C)=O)C1CCCCC1)C(C)C)C(=O)O (single isomer, unassigned) — 190-fold lower, 0.029 µM
